Columns and labels:
[1] = tested on: Human granulosa cells; test: Estrone production by cultured human granulosa cells with androstenedione as substrate (ELISA/RIA); format: cell-based; settings: 3 μM androstenedione
Protocol: (§1) Human granulosa cells were obtained during in vitro fertilization over the course of 18 months and were pooled from several patients at a time to ensure adequate cell number for the experiments. The diagnoses included male factor, tubal factor and uterine factor infertility, endometriosis and anovulation. […] La Jolla, Calif.). Estrone and estradiol concentrations in the tissue culture medium were measured using enzyme-linked immuno-sorbent assay (ELISA) (Alpco Diagnostics, Salem, N.H.) or radioimmunoassay (RIA) (Diagnostic Systems Laboratories, Webster, Tex.). […] The statistical interactions between the sets of data obtained with or without rosiglitazone or pioglitazone and with or without aromatase inhibitor I were examined. Pairwise Bonferroni-adjusted contrasts were used to determine statistical significance. […] Adjustments were made for initial inhibition of estradiol or estrone production induced by rosiglitazone or pioglitazone in the absence of insulin, with or without aromatase inhibitor I.

[2] = tested on: Human granulosa cells; test: Estradiol production by cultured human granulosa cells with testosterone as substrate (ELISA/RIA); format: cell-based; settings: 3 μM testosterone; for reduction of the inhibitory effect on insulin-induced estradiol production: in the presence of aromatase inhibitor I and insulin, FIG. 2A vs FIG. 2C
Protocol: as §1

[3] = tested on: aromatase mRNA; test: RT-PCR analysis of aromatase mRNA expression in granulosa cells; format: cell-based, human; settings: androstenedione or testosterone as substrate
[4] = tested on: aromatase enzyme (protein) expression; test: Aromatase enzyme expression by immunoprecipitation and immunoblotting in granulosa cells; format: cell-based, human; settings: androstenedione or testosterone as substrate; for effect on aromatase enzyme expression: 25 μM, absence or presence of insulin, vs control
Protocol: La Jolla, Calif.). […] Cambridge, Mass.) were added to 1 ml of cell lysate. […] The lysate was centrifuged at 6,000 rpm for 3 min and the supernatant was transferred into another micro-centrifuge tube. […] Metab. 92: 2232-2239, 2007, which is incorporated herein by reference. The mixture was incubated for 3-4 h at 4° C. After Protein A-agarose was added, the mixture was incubated again overnight at 4° C. The immunoprecipitate complexes were collected by centrifugation and washed. The samples were then resuspended in 2× Laemmli buffer (BioRad, Hercules, Calif.) supplemented with 1 mM DTT (Cleland's reagent, 1, 4-dithiothreitol, threo-1, 4-dimercapto-2, 3-butanediol, Roche Inc, Indianapolis, Ind.). […] The bands were detected by chemiluminescence (Pierce, Rockford, Ill.). For the analysis of the expression of aromatase, NIH Scion Imaging program was used to evaluate integrated band intensity.

[5] = molecular target: T1, aromatase enzyme (Homo sapiens, UniProt P11511); test: 125I-androstenedione binding to immunoprecipitated aromatase enzyme; settings: for inhibition at 25 µM: 1 μM androstenedione, vs control
T1 construct: The aromatase enzyme was immunoprecipitated as described above; endogenous in cells; host or cells: primary granulosa cells (human), lysate immunoprecipitated with anti-human aromatase antibody and Protein A-agarose
T1 sequence (P11511 1-503): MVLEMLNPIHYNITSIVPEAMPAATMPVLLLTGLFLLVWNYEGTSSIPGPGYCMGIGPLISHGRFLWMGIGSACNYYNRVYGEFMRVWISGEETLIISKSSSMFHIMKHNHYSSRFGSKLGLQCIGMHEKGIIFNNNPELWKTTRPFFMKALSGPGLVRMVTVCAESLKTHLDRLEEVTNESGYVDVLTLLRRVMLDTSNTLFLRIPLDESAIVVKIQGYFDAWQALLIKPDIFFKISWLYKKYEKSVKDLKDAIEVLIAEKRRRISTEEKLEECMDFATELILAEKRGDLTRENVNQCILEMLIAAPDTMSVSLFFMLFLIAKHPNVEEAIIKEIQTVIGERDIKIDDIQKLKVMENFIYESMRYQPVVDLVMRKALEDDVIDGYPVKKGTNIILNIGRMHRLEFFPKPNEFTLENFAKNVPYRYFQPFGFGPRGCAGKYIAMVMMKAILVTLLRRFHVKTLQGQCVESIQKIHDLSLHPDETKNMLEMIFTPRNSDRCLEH
Protocol: (§2) Rabbit polyclonal anti-human aromatase antibodies (1.4 μg) (Abcam, Inc. Cambridge, Mass.) were added to 1 ml of cell lysate. The lysate buffer contained 20 mM Tris-HCl (pH 7.4), 150 mM NaCl, 1 mM CaCl2, 1 mM MgCl2, 1 mM Na orthovanadate, 1% NP40, 1 mM AEBSF (4-2-aminoethyl-benzenesulfonyfluoride, hydrochloride), 0.8 μM aprotinin, 50 μM bestain, 15 μM E-64, 20 μM leupeptin, 10 μM pepstatin A, 1 mM phenylmethylsulfonyl fluoride and 10 μg/ml trypsin inhibitor. The lysate was centrifuged at 6,000 rpm for 3 min and the supernatant was transferred into another micro-centrifuge tube. […] Metab. 92: 2232-2239, 2007, which is incorporated herein by reference. The mixture was incubated for 3-4 h at 4° C. After Protein A-agarose was added, the mixture was incubated again overnight at 4° C. The immunoprecipitate complexes were collected by centrifugation and washed. The samples were then resuspended in 2× Laemmli buffer (BioRad, Hercules, Calif.) supplemented with 1 mM DTT (Cleland's reagent, 1, 4-dithiothreitol, threo-1, 4-dimercapto-2, 3-butanediol, Roche Inc, Indianapolis, Ind.). […] The bands were detected by chemiluminescence (Pierce, Rockford, Ill.). For the analysis of the expression of aromatase, NIH Scion Imaging program was used to evaluate integrated band intensity.
(§3) The aromatase enzyme was immunoprecipitated as described above. Purified aromatase bound to Protein A-agarose was added to 250 μl of solution containing the final concentration of 1 μM testosterone (2 μCi of [125I]/m1 testosterone with the specific radioactivity of 857 μCi/nmol) or androstenedione (3.5 μCi of [125I]/ml androstenedione with the specific radioactivity of 430 μCi/nmol), with insulin (0, 10, 10^2, 10^3 ng/ml) and with or without 25 μM rosiglitazone or pioglitazone. The mixture was incubated at room temperature for 30 min and then centrifuged at 6000 rpm for 3 min. The pellets were washed two times with 400 μl Dulbecco's phosphate saline. The bound testosterone or androstenedione, expressed as % of total testosterone or androstenedione, was measured in Wizard gamma counter.

[6] = molecular target: T1, aromatase enzyme; test: 125I-testosterone binding to immunoprecipitated aromatase enzyme; settings: for inhibition at 25 µM: 1 μM testosterone, vs control
Protocol: as §2, §3

[7] = in the presence of aromatase inhibitor I
[8] = 25 μM TZD, presence of insulin, absence of aromatase inhibitor I, vs control without TZD
[9] = 25 μM, absence or presence of insulin, vs control
[10] = insulin, absence of aromatase inhibitor I, vs baseline

inhibition at 25 µM [5]	inhibition at 25 µM [6]	effect on the binding of androstenedione to aromatase ([5]; insulin alone)	effect on the binding of testosterone to aromatase ([6]; insulin alone)	Compound	inhibition of estrone production ([1]; aromatase inhibitor 100 to 200 nM)	inhibition of estradiol production [2, 7]	insulin-induced stimulation of estradiol production [2, 7]	inhibition of estrone production [1, 8]	inhibition of estradiol production [2, 8]	reduction of the inhibitory effect on insulin-induced estradiol production [2]	effect on aromatase mRNA [3, 9]	effect on aromatase enzyme expression [4]	stimulation of estrone production [1, 10]	stimulation of estradiol production [2, 10]	effect on aromatase mRNA ([3]; insulin alone)	effect on aromatase enzyme (protein) expression ([4]; insulin alone)
				4-(imidazolylmethyl)-1-nitro-9H-9-xanthenone [aromatase inhibitor I]	55%	72%	completely abolished									
20%	32%			CCc1ccc(CCOc2ccc(CC3SC(=O)NC3=O)cc2)nc1 (centres unmarked) [pioglitazone]				22%	34%	62%	no significant effect	no significant effect				
20%	38%			CN(CCOc1ccc(CC2SC(=O)NC2=O)cc1)c1ccccn1 (centres unmarked) [rosiglitazone]				22%	34%	62%	no significant effect	no significant effect				
		no effect	no effect	insulin: insulin added to granulosa cell culture (0-10^4 ng/ml)									114%	124%	no effect	did not affect

— patent US20120264786A1, “USE OF THIAZOLIDINEDIONES FOR THE PARTIAL INHIBITION OF ANDROGEN BINDING TO AROMATASE” (priority 2008, published 2012)
